Measurements: ChEMBL document CHEMBL2417435, “The discovery of potent blockers of the canonical transient receptor channels, TRPC3 and TRPC6, based on an anilino-thiazole pharmacophore” (Bioorg Med Chem Lett, 2013)

Legend:
[1] = molecular target: T1, Short transient receptor potential channel 3 (Homo sapiens, UniProt Q13507); test: Inhibition of human recombinant TRPC3 expressed in HEK293-MSRII cells assessed as carbachol-stimulated Ca2+/Na+ influx after 10 mins by FLIPR assay; format: cell-based
T1 sequence (Q13507 whole entry): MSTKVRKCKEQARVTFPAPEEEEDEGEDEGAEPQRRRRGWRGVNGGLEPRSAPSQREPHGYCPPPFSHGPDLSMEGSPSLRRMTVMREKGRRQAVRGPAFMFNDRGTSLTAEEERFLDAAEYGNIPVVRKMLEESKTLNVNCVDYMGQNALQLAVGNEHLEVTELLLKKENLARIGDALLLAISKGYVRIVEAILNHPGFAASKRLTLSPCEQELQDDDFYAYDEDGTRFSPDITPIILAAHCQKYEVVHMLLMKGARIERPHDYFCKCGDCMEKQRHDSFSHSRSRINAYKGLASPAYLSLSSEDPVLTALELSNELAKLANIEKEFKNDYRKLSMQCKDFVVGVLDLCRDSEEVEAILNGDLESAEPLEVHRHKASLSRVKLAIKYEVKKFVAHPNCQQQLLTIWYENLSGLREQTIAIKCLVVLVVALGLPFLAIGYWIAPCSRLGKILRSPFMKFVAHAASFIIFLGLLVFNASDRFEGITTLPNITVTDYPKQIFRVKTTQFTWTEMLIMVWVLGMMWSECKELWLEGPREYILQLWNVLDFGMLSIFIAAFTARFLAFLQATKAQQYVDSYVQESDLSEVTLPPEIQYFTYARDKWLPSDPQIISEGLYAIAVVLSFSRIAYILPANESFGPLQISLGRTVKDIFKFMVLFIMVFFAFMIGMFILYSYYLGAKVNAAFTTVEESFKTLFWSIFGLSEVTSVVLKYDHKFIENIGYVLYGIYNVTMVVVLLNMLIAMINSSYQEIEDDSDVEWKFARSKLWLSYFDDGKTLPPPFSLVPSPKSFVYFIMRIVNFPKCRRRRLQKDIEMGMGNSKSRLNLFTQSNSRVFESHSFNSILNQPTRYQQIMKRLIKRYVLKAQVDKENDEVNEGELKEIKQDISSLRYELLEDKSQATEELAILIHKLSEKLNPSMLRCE

[2] = molecular target: T2, Short transient receptor potential channel 6 (Homo sapiens, UniProt Q9Y210); test: Inhibition of human recombinant TRPC6 expressed in HEK293-MSRII cells assessed as carbachol-stimulated Ca2+/Na+ influx after 10 mins by FLIPR assay; format: cell-based
T2 sequence (Q9Y210 whole entry): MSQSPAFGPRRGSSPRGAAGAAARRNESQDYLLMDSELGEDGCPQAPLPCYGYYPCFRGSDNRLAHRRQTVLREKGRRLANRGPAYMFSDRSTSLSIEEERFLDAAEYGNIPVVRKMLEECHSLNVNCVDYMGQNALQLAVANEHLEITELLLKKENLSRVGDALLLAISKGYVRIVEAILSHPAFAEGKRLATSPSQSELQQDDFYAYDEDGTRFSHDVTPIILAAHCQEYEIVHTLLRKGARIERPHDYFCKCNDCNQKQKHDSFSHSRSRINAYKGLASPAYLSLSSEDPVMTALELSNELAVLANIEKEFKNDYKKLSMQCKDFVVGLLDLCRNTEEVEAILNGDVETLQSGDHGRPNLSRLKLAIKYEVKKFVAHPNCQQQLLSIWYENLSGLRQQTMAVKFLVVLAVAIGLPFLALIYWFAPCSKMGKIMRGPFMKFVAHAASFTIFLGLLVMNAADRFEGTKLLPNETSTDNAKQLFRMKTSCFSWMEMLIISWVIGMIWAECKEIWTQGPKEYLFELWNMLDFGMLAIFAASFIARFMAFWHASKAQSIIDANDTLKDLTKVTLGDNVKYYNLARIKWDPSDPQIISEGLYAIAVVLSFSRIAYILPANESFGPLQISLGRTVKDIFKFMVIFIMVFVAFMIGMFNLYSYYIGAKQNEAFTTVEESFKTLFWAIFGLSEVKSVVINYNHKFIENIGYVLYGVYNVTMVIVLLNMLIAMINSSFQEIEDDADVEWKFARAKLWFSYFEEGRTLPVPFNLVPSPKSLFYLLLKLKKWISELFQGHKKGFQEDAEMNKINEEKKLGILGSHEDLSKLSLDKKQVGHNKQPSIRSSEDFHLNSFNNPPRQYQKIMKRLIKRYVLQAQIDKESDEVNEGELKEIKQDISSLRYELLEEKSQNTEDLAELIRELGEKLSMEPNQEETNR

[3] = Clearance in rat at 1.04 mg/kg, iv; format: ADME, organism-based; parameters: dose 1.04 mg/kg, route intravenous; conditions: in vivo
[4] = molecular target: Transient receptor potential cation channel subfamily A member 1 (Homo sapiens, UniProt O75762); test: Inhibition of TRPA1 (unknown origin) by FLIPR assay
[5] = Mean residence time in rat at 1.04 mg/kg, iv; format: ADME, organism-based; parameters: dose 1.04 mg/kg, route intravenous; conditions: in vivo
[6] = molecular target: Voltage-gated inwardly rectifying potassium channel KCNH2 (Homo sapiens, UniProt Q12809); test: Inhibition of human ERG channel by patch express-based electrophysiology assay
[7] = molecular target: Transient receptor potential cation channel subfamily V member 1 (Homo sapiens, UniProt Q8NER1); test: Inhibition of TRPV1 (unknown origin) by FLIPR assay
[8] = molecular target: Voltage-dependent L-type calcium channel subunit alpha-1C (Homo sapiens, UniProt Q13936); test: Inhibition of CaV1.2 channel (unknown origin) by patch express-based electrophysiology assay
[9] = molecular target: Sodium channel protein type 5 subunit alpha (Homo sapiens, UniProt Q14524); test: Inhibition of NaV1.5 channel (unknown origin) by patch express-based electrophysiology assay
[10] = molecular target: Transient receptor potential cation channel subfamily V member 4 (Homo sapiens, UniProt Q9HBA0); test: Inhibition of TRPV4 (unknown origin) by FLIPR assay
[11] = Cmax in rat at 1.04 mg/kg, iv; format: ADME, organism-based; parameters: dose 1.04 mg/kg, route intravenous; conditions: in vivo
[12] = Oral bioavailability in rat at 1.04 mg/kg; format: ADME, organism-based; conditions: in vivo
Rattus norvegicus [13] = test: Dose normalized AUC in rat at 1.04 mg/kg, iv; format: ADME, organism-based; parameters: dose 1.04 mg/kg, route intravenous; conditions: in vivo
[14] = Oral bioavailability in rat at 0.92 mg/kg; format: ADME, organism-based; conditions: in vivo
[15] = Cmax in rat at 0.92 mg/kg, iv; format: ADME, organism-based; parameters: dose 0.92 mg/kg, route intravenous; conditions: in vivo
Rattus norvegicus [16] = test: Dose normalized AUC in rat at 0.92 mg/kg, iv; format: ADME, organism-based; parameters: dose 0.92 mg/kg, route intravenous; conditions: in vivo
Rattus norvegicus [17] = test: Volume of distribution at steady state in rat at 0.92 mg/kg, iv; format: ADME, organism-based; parameters: dose 0.92 mg/kg, route intravenous; conditions: in vivo
Rattus norvegicus [18] = test: Mean residence time in rat at 0.92 mg/kg, iv; format: ADME, organism-based; parameters: dose 0.92 mg/kg, route intravenous; conditions: in vivo
[19] = Clearance in rat at 1.06 mg/kg, iv; format: ADME, organism-based; parameters: dose 1.06 mg/kg, route intravenous; conditions: in vivo
[20] = Volume of distribution at steady state in rat at 1.06 mg/kg, iv; format: ADME, organism-based; parameters: dose 1.06 mg/kg, route intravenous; conditions: in vivo, read-out: Vdss
[21] = Mean residence time in rat at 1.06 mg/kg, iv; format: ADME, organism-based; parameters: dose 1.06 mg/kg, route intravenous; conditions: in vivo
[22] = Oral bioavailability in rat at 1.06 mg/kg; format: ADME, organism-based; conditions: in vivo
Rattus norvegicus [23] = test: Dose normalized AUC in rat at 1.06 mg/kg, iv; format: ADME, organism-based; parameters: dose 1.06 mg/kg, route intravenous; conditions: in vivo
[24] = Cmax in rat at 1.06 mg/kg, iv; format: ADME, organism-based; parameters: dose 1.06 mg/kg, route intravenous; conditions: in vivo
[25] = Cmax in rat at 0.82 mg/kg, iv; format: ADME, organism-based; parameters: dose 0.82 mg/kg, route intravenous; conditions: in vivo
Rattus norvegicus [26] = test: Dose normalized AUC in rat at 0.82 mg/kg, iv; format: ADME, organism-based; parameters: dose 0.82 mg/kg, route intravenous; conditions: in vivo
[27] = Mean residence time in rat at 0.82 mg/kg, iv; format: ADME, organism-based; parameters: dose 0.82 mg/kg, route intravenous; conditions: in vivo
[28] = Oral bioavailability in rat at 0.82 mg/kg; format: ADME, organism-based; conditions: in vivo
[29] = Clearance in rat at 0.82 mg/kg, iv; format: ADME, organism-based; parameters: dose 0.82 mg/kg, route intravenous; conditions: in vivo

Chain of Transient receptor potential cation channel subfamily V member 1 (Q8NER1 whole entry): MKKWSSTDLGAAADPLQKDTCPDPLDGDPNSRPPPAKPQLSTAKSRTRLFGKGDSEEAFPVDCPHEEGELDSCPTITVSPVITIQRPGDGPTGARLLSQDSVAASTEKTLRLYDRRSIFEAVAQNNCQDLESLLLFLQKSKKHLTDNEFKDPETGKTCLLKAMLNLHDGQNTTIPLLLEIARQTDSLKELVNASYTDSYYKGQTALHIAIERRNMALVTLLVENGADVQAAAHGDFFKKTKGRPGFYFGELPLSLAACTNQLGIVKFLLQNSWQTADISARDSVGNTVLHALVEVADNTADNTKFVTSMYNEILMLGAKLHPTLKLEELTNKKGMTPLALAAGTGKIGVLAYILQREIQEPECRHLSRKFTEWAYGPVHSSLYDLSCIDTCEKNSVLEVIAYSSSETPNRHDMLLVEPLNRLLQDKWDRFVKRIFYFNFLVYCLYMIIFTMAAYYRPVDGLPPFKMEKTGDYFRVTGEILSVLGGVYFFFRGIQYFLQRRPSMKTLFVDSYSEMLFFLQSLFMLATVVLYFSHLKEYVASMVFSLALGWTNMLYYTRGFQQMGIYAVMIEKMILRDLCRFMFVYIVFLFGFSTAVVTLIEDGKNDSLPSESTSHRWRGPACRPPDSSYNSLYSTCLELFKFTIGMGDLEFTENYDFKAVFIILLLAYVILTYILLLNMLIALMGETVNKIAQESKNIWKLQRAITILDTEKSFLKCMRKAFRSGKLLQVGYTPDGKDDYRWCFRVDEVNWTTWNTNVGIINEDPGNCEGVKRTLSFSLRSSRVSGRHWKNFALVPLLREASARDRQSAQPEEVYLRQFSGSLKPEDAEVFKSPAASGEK
Chain of Transient receptor potential cation channel subfamily A member 1 (O75762 whole entry): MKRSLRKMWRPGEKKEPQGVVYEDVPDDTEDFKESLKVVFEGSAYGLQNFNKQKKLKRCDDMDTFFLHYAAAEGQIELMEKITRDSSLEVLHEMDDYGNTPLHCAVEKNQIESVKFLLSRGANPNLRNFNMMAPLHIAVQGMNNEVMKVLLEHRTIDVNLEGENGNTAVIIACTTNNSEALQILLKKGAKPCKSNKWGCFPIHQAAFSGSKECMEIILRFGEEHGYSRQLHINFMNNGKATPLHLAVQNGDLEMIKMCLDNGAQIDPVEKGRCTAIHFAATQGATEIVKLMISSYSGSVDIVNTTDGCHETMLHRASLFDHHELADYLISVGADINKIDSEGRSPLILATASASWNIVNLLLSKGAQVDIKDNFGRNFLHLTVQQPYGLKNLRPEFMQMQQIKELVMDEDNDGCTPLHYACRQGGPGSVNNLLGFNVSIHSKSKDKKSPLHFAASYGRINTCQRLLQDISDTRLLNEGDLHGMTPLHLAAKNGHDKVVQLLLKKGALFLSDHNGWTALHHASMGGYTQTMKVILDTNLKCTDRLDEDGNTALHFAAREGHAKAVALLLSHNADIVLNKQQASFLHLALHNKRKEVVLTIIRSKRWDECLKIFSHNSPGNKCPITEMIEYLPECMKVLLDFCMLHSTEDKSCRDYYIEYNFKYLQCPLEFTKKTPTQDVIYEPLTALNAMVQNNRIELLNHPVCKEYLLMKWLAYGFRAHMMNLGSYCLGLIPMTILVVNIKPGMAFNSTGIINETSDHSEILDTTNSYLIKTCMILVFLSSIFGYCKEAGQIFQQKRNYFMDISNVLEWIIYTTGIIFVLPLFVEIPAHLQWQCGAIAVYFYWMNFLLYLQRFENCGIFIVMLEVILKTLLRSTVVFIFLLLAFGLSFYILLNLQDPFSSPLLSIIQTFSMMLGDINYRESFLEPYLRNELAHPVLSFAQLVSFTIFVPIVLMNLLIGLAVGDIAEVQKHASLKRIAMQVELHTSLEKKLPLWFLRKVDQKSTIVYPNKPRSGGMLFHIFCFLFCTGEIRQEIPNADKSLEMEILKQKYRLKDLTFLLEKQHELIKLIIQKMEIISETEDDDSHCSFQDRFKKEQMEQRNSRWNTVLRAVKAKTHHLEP
Chain of Transient receptor potential cation channel subfamily V member 4 (Q9HBA0 whole entry): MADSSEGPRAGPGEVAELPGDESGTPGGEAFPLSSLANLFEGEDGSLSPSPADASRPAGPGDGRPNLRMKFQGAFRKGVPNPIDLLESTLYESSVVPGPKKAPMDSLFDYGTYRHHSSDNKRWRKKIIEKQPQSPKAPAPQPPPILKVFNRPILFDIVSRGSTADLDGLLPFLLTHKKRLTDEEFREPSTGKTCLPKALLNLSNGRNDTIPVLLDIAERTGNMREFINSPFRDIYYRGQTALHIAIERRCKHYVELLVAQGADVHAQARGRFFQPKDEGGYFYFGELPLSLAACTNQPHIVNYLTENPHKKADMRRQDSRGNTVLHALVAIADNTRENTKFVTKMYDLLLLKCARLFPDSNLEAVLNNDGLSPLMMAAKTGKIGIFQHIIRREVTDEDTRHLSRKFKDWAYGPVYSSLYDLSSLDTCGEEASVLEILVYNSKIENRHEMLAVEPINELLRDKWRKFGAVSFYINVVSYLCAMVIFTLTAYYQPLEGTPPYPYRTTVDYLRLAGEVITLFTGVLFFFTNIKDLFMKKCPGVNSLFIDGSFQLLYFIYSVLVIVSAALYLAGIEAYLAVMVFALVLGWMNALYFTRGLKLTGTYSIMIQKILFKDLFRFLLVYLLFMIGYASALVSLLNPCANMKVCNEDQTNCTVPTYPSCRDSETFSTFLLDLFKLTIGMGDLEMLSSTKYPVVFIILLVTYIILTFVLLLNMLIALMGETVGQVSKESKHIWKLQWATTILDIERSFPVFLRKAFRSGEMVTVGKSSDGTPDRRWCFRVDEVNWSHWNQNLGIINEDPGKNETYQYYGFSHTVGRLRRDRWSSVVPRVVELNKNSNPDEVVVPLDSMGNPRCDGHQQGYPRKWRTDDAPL
Chain of Voltage-dependent L-type calcium channel subunit alpha-1C (Q13936 whole entry): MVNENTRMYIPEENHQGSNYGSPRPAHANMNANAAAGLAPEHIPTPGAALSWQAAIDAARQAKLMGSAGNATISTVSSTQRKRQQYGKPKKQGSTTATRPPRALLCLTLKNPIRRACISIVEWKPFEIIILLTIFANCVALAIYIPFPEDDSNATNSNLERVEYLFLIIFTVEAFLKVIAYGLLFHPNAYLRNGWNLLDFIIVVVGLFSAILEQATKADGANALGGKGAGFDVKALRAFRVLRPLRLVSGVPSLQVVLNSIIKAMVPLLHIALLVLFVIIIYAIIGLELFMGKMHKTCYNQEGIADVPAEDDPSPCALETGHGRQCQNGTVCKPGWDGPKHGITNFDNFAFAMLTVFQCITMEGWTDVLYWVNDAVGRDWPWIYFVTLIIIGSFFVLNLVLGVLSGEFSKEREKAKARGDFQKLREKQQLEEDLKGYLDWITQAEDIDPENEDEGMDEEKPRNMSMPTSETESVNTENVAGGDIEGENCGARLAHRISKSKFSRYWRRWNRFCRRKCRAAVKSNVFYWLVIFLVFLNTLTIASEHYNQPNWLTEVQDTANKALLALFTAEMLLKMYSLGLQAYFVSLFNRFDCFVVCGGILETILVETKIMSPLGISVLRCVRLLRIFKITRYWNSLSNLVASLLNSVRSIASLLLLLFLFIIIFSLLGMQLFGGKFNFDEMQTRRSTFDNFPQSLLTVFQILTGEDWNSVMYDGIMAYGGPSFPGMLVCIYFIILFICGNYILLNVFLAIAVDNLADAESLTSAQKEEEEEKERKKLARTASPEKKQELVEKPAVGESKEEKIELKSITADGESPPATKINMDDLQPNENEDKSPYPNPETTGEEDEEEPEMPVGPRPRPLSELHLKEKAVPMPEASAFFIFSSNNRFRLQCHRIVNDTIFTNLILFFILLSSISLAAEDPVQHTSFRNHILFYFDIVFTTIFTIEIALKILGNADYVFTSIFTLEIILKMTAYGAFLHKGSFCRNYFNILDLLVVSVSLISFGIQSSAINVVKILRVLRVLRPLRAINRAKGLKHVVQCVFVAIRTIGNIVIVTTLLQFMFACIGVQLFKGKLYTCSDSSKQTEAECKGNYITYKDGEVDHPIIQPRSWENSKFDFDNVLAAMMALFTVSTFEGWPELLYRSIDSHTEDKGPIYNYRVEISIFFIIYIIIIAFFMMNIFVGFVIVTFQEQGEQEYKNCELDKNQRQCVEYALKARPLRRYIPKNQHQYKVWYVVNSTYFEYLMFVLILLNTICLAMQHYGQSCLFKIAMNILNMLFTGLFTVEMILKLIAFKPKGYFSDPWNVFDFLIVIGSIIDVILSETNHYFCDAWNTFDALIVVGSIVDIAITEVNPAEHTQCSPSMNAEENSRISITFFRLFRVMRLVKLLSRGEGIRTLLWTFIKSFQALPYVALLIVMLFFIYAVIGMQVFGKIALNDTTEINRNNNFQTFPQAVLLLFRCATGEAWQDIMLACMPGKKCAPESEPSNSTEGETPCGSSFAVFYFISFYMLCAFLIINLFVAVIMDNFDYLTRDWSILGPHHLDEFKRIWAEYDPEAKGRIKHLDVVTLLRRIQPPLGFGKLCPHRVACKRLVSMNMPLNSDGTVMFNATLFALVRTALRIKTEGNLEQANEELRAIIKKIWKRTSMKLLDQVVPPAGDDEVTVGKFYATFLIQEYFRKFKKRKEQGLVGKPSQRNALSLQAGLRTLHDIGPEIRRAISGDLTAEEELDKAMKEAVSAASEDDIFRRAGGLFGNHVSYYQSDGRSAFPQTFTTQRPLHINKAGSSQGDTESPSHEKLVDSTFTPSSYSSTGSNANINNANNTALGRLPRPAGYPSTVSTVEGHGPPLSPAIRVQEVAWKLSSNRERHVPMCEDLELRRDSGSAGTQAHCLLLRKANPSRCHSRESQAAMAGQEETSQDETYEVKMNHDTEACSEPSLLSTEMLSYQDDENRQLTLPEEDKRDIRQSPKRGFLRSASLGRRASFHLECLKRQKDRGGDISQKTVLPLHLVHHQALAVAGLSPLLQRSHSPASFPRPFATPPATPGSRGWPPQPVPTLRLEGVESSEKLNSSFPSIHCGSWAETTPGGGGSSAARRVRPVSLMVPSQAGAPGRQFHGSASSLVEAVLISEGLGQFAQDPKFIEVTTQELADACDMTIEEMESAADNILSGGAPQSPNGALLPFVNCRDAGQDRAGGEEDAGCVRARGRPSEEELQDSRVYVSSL

Structure (SMILES): CC1c2ccccc2CCN1C(=O)c1csc(Nc2ccc3c(c2)OCO3)n1 (stereo unspecified)
- IC50 [1]: 0.316 µM
- IC50 [2]: 0.063 µM

Structure (SMILES): COc1ccc(Nc2nc(C(=O)N3CCC(C)CC3)cs2)cc1
- IC50 [1]: 0.8 µM
- IC50 [2]: 0.8 µM

Structure (SMILES): Cc1ccc(Nc2nc(C(=O)N3CCCC(C)C3C)cs2)cc1 (stereo unspecified)
- clearance [3]: 75 mL/min/kg
- IC50 [4]: 8 µM
- MRT [5]: 2.8 h
- IC50 [6]: > 50 µM
- IC50 [7]: 1.26 µM
- IC50 [8]: 10 µM
- IC50 [1]: 0.25 µM
- IC50 [2]: 0.08 µM
- IC50 [9]: 50 µM
- IC50 [10]: 6.3 µM
- Cmax [11]: 310 ng/mL
- bioavailability [12]: < 1%
- AUC/dose (Rattus norvegicus [13]): 0.2 kg·L·h

Structure (SMILES): COc1ccc(Nc2nc(C(=O)N3CCC(c4ccccc4)CC3)cs2)cc1
- IC50 [1]: 2.5 µM
- IC50 [2]: 1.6 µM

Structure (SMILES): Cc1sc(Nc2ccc(Cl)cc2F)nc1C(=O)N1CCc2ncccc2C1
- bioavailability [14]: 100%
- Cmax [15]: 510 ng/mL
- AUC/dose (Rattus norvegicus [16]): 0.85 kg·h/L
- IC50 [1]: 20 µM
- IC50 [2]: 6.3 µM
- Vdss (Rattus norvegicus [17]): 0.7 L/kg
- MRT (Rattus norvegicus [18]): 1.6 h

Structure (SMILES): CC1CCN(C(=O)c2csc(Nc3ccc(Cl)cc3F)n2)CC1
- IC50 [1]: 1.6 µM
- IC50 [2]: 0.63 µM

Structure (SMILES): Cc1sc(Nc2ccc3c(c2)OCO3)nc1C(=O)N1CCc2ncccc2C1C (stereo unspecified)
- clearance [19]: 9.3 mL/min/kg
- Vd [20]: 0.7 L/kg
- IC50 [1]: 10 µM
- MRT [21]: 1.3 h
- bioavailability [22]: 65%
- IC50 [2]: 1.26 µM
- AUC/dose (Rattus norvegicus [23]): 1.86 kg·h/L
- Cmax [24]: 1800 ng/mL

Structure (SMILES): Cc1sc(Nc2ccc(Cl)cc2F)nc1C(=O)N1CCC[C@@H](C)[C@H]1C
- IC50 [1]: 1 µM
- IC50 [2]: 1.6 µM

Structure (SMILES): Cc1sc(Nc2cc3c(cc2F)OCO3)nc1C(=O)N1CCCC(C)C1C (stereo unspecified)
- IC50 [1]: 0.16 µM
- IC50 [2]: 0.025 µM

Structure (SMILES): Cc1sc(Nc2ccc(Cl)cc2F)nc1C(=O)N1CCC[C@H](C)[C@@H]1C
- IC50 [4]: 25 µM
- Cmax [25]: 120 ng/mL
- IC50 [7]: 6.3 µM
- IC50 [8]: 10 µM
- AUC/dose (Rattus norvegicus [26]): 0.1 kg·L·h
- IC50 [1]: 0.1 µM
- IC50 [2]: 0.016 µM
- IC50 [9]: 3.3 µM
- IC50 [10]: 12.5 µM
- MRT [27]: 0.7 h
- bioavailability [28]: 64%
- clearance [29]: 150 mL/min/kg

Structure (SMILES): CC1CCN(C(=O)c2csc(Nc3ccc4c(c3)OCO4)n2)CC1
- IC50 [1]: 0.4 µM
- IC50 [2]: 0.16 µM

Structure (SMILES): Cc1sc(Nc2ccc(Cl)cc2F)nc1C(=O)N1CCCC(C)C1C (racemic)
- IC50 [1]: 0.25 µM
- IC50 [2]: 0.05 µM
